Key:
[1] = molecular target: ATX (Homo sapiens, UniProt Q13822); assay: Analysis in vitro: LPC was used as substrate for screening enzyme activity (Amplex Red fluorescence); format: biochemical; settings: inhibitory activity against ATX, with LPC as substrate
Text: Analysis In Vitro: LPC was Used as Substrate for Screening Enzyme Activity
Principle: Lysophosphatidylcholine (LPC) as substrate is hydrolyzed by using the activity of lysoPLD enzyme, to produce lysophosphatidic acid (LPA) and choline, which is oxidized to produce H2O2 under the action of choline oxidase. In presence of horse radish peroxidase (HPR), Amplex Red reagent is reacted with H2O2 in a quantitative chemistry ratio of 1 to 1, to produce strong fluorescence products, which are detected by a fluorescent quantitative test.
Experimental procedures: the compounds to be tested were dissolved in DMSO, to prepare 10 mM of stock solution, which was diluted in a gradient concentration of 3 times with DMSO from 10 mM, to generate 10 concentration gradients. The reaction buffer solution was used for preparing a mixed solution 1 of 2 ng/μl ATX, 2 U/ml HRP and 0.2 U/ml choline oxidase in a final concentration. 20 μl of the above mixed solution 1 was added to each hole of an experiment board, […]. The compounds diluted with DMSO were transferred into an experiment board with Echo550. The reaction buffer solution was used for preparing a mixed solution 2 of […] LPC and 400 μM Amplex Red in a final concentration. 20 μl of the above mixed solution 2 was added to each hole of the experiment board. After addition, the experiment board was shook for 30 seconds on a shaker, and incubated for 30 minutes. Envision was used to read the fluorescence signals with an exciting light at 530 nm and emitted light at 590 nm. Inhibition ratio of the compounds to enzyme reaction was calculated according to the ratio of fluorescence, and IC50 of the compounds was analyzed and calculated by software, seeing Table 1.

[2] = molecular target: T1, ATX in human plasma (Homo sapiens, UniProt Q13822); assay: Analysis in vitro: detection of LPA in human plasma for screening activity (LPA 18:2 by LC/MS/MS); format: biochemical; settings: incubated 2 hours at 37° C., LPA 18:2 detected by LC/MS/MS
T1 construct: blank plasma was derived from at least 6 individual people; from tissue; host or cells: human plasma (pooled from at least 6 individuals)
Text: Analysis In Vitro: Detection of LPA in Human Plasma for Screening Activity
Principle: LPC in plasma being used as a substrate, the produced LPA 18:2 (LPA 17:0 as an internal standard) is detected by LC/MS/MS quantitative analysis. At different concentrations of the compounds to be tested, the percentage of residual activity is obtained by the ratio of the production of LPA18:2 to that in the absence of the compounds to be tested, thereby calculating IC50 values.
Experiment procedures: blank plasma was derived from at least 6 individual people. The compounds to be tested were diluted from stock solution in 3-fold dilution gradient, to produce 8 concentrations of working solution (with zero) in series. 10 μL of the melting blank plasma samples were taken and iced methanol solution containing internal standard (LPA 17:0) was added to it, so that the mixture directedly performed protein precipitation, which served as a system control sample. 2 μL of the working solution in different concentration was taken and 198 μL of blank human plasma was added, which was incubated with a concentration of 0 to 10 μM. The samples were placed at an incubater containing 5% CO2 at 37° C., and incubated for 2 hours. When the incubation was completed, 10 μL of plasma sample was taken and appropriate volume of iced methanol solution containing internal standard (LPA 17:0) was added into it, so that the mixture directedly performed protein precipitation. The precipitation was centrifuged to take supernatant. LPA 18:2 was detected by LC/MS/MS and IC50 values were analyzed and calculated by software, seeing Table 2.

IC50 [1] | IC50 [2] | Compound
100 to 500 nM | 0.01 to 100 nM | CCc1nc2sc(N3CCC4(CC3)CN(CC(=O)N3CC(O)C3)C4)nn2c1N(C)c1nc(-c2ccc(F)cc2)c(C#N)s1 [Example 4]
0.01 to 100 nM | 0.01 to 100 nM | CCc1nc2sc(N3CC[C@H](N(C)CC(=O)N4CC(C#N)C4)C3)nn2c1N(C)c1nc(-c2ccc(F)cc2)c(C#N)s1 [Example 47, (S)-2-{[2-(3-((2-(3-cyanoazetidin-1-yl)-2-oxoethyl)(methyl)amino)pyrrolidin-1-yl)-6-ethylimidazo[2,1-b][1,3,4]thiadiazol-5-yl](methyl)amino}-4-(4-fluorophenyl)-thiazole-5-carbonitrile]
0.01 to 100 nM | 0.01 to 100 nM | CCc1nc2sc(N3CCC[C@H](N(C)CC(=O)N4CC(O)C4)C3)nn2c1N(C)c1nc(-c2ccc(F)cc2)c(C#N)s1 [Example 24, (S)-2-{[6-ethyl-2-(3-((2-(3-hydroxyazetidin-1-yl)-2-oxoethyl)(methyl)amino)piperidin-1-yl)imidazo[2,1-b][1,3,4]thiadiazol-5-yl](methyl)amino}-4-(4-fluorophenyl)thiazole-5-carbonitrile]
0.01 to 100 nM | 100 to 500 nM | CCc1nc2sc(N3CC[C@@H](N(C)C(N)=O)C3)nn2c1N(C)c1nc(-c2ccc(F)cc2)c(C#N)s1 [Example 19, (R)-1-{1-[5-((5-cyano-4-(4-fluorophenyl)thiazol-2-yl)(methyl)amino)-6-ethylimidazo[2,1-b][1,3,4]thiadiazol-2-yl]pyrrolidin-3-yl}-1-methylurea]
100 to 500 nM | 0.01 to 100 nM | CCc1nc2sc(C3CCN(CC(=O)N4CC(O)C4)CC3)nn2c1N(C)c1nc(-c2ccc(F)cc2)c(C#N)s1 [Example 17, 2-{[6-ethyl-2-(1-(2-(3-hydroxyazetidin-1-yl)-2oxoethyl)piperidin-4-yl)imidazo[2,1-b][1,3,4]thiadiazol-5-yl](methyl)amino}-4-(4-fluorophenyl)thiazole-5-carbonitrile]
100 to 500 nM | 100 to 500 nM | CCc1nc2sc(N3CCC[C@@H](N(C)CC(=O)N4CC(O)C4)C3)nn2c1N(C)c1nc(-c2ccc(F)cc2)c(C#N)s1 [Example 23, (R)-2-{[6-ethyl-2-(3-((2-(3-hydroxyazetidin-1-yl)-2-oxoethyl)(methyl)amino)piperidin-1-yl)imidazo[2,1-b][1,3,4]thiadiazol-5-yl](methyl)amino}-4-(4-fluorophenyl)thiazole-5-carbonitrile]
0.01 to 100 nM | 100 to 500 nM | CCc1nc2sc(N3CC[C@H](N(C)CC(=O)N4CCOCC4)C3)nn2c1N(C)c1nc(-c2ccc(F)cc2)c(C#N)s1 [Example 41, (S)-2-{[6-ethyl-2-(3-(methyl(2-morpholino-2-oxoethyl)amino)pyrrolidin-1-yl)imidazo[2,1-b][1,3,4]thiadiazol-5-yl](methyl)amino}-4-(4-fluorophenyl)thiazole-5-carbonitrile]
0.01 to 100 nM | 0.01 to 100 nM | CCc1nc2sc(N3CC[C@@H](N(C)CC(=O)N4CC(O)C4)C3)nn2c1N(C)c1nc(-c2ccc(F)cc2)c(C#N)s1 [Example 21, (R)-2-{[6-ethyl-2-(3-((2-(3-hydroxyazetidin-1-yl)-2-oxoethyl)(methyl)amino)pyrrolidin-1-yl)imidazo[2,1-b][1,3,4]thiadiazol-5-yl](methyl)amino}-4-(4-fluorophenyl)thiazole-5-carbonitrile]
100 to 500 nM | 100 to 500 nM | CCc1nc2sc(N3CCN(CC(=O)N4CC(O)C4)CC3)nn2c1N(C)c1nc(-c2ccc(F)cc2)c(C#N)s1 [Example 2, 2-{[6-ethyl-2-(4-(2-(3-hydroxyazetidin-1-yl)-2-oxoethyl)piperazin-1-yl)imidazo[2,1-b][1,3,4]thiadiazol-5-yl](methyl)amino}-4-(4-fluorophenyl)thiazole-5-carbonitrile]
100 to 500 nM | 100 to 500 nM | CCc1nc2sc(N3CCC4(CC3)CN(C(N)=O)C4)nn2c1N(C)c1nc(-c2ccc(F)cc2)c(C#N)s1 [Example 8]
0.01 to 100 nM | 100 to 500 nM | CCc1nc2sc(N3CC[C@H](N(C)CC(=O)N4CC(C(=O)O)C4)C3)nn2c1N(C)c1nc(-c2ccc(F)cc2)c(C#N)s1 [Example 45, (5)-1-{2-[(1-(5-((5-cyano-4-(4-fluorophenyl)thiazol-2-yl)(methyl)amino)-6-ethylimidazo[2,1-b][1,3,4]thiadiazol-2-yl}pyrrolidin-3-yl)(methyl)amino]acetyl}azetidine-3-carboxylic acid]
0.01 to 100 nM | 0.01 to 100 nM | CCc1nc2sc(N3CCCC(N(C)C(N)=O)C3)nn2c1N(C)c1nc(-c2ccc(F)cc2)c(C#N)s1 (stereo not drawn) [Example 15, 1-{1-[5-((5-cyano-4-(4-fluorophenyl)thiazol-2-yl)(methyl)amino)-6-ethylimidazo[2,1-b][1,3,4]thiadiazol-2-yl]piperidin-3-yl}-1-methylurea]
0.01 to 100 nM | 0.01 to 100 nM | CCc1nc2sc(N3CCCC(N(C)CC(=O)N4CC(O)C4)C3)nn2c1N(C)c1nc(-c2ccc(F)cc2)c(C#N)s1 (stereo not drawn) [Example 14]
0.01 to 100 nM | 100 to 500 nM | CCc1nc2sc(N3CC[C@@H](N(C)C(=O)N4CC(O)C4)C3)nn2c1N(C)c1nc(-c2ccc(F)cc2)c(C#N)s1 [Example 36, (R)—N-{1-[5-((5-cyano-4-(4-fluorophenyl)thiazol-2-yl)(methyl)amino)-6-ethylimidazo[2,1-b][1,3,4]thiadiazol-2-yl]pyrrolidin-3-yl}-3-hydroxy-N-methylazetidine-1-carboxamide]
0.01 to 100 nM | 0.01 to 100 nM | CCc1nc2sc(N3CCC(N(C)C(N)=O)C3)nn2c1N(C)c1nc(-c2ccc(F)cc2)c(C#N)s1 (stereo not drawn) [Example 12, 1-{1-[5-((5-cyano-4-(4-fluorophenyl)thiazol-2-yl)(methyl)amino)-6-ethylimidazo[2,1-b][1,3,4]thiadiazol-2-yl]pyrrolidin-3-yl}-1-methylurea]
 | 100 to 500 nM | CCc1nc2sc(N3C[C@@H](C)N(CC(=O)N4CC(O)C4)C[C@H]3C)nn2c1N(C)c1nc(-c2ccc(F)cc2)c(C#N)s1 [Example 75, 2-{[6-ethyl-2-((2R,5R)-4-(2-(3-hydroxyazetidin-1-yl)-2-oxoethyl)-2,5-dimethylpiperazin-1-yl)imidazo[2,1-b][1,3,4]thiadiazol-5-yl](methyl)amino}-4-(4-fluorophenyl)thiazole-5-carbonitrile]
 | 0.01 to 100 nM | CCc1nc2sc(N3CCN(CC(=O)N4CC(O)C4)C[C@H]3C)nn2c1N(C)c1nc(-c2ccc(F)cc2)c(C#N)s1 [Example 66, (R)-2-{[6-ethyl-2-(4-(2-(3-hydroxyazetidin-1-yl)-2-oxoethyl)-2-methylpiperazin-1-yl)imidazo[2,1-b][1,3,4]thiadiazol-5-yl](methyl)amino}-4-(4-fluorophenyl)thiazole-5-carbonitrile]
 | 100 to 500 nM | CCc1nc2sc(N3CC4(CCN(CC(=O)N5CC(O)C5)C4)C3)nn2c1N(C)c1nc(-c2ccc(F)cc2)c(C#N)s1 [Example 52, 2-{[6-ethyl-2-(6-(2-(3-hydroxyazetidin-1-yl)-2-oxoethyl)-2,6-diazaspiro[3.4]octan-2-yl)imidazo[2,1-b][1,3,4]thiadiazol-5-yl](methyl)amino}-4-(4-fluorophenyl)thiazole-5-carbonitrile]

— patent US11679108B2, “Aromatic heterocyclic compound, and pharmaceutical composition and use thereof” (GUANGZHOU HENOVCOM BIOSCIENCE CO., LTD., priority 2018, dated 2023)
